Data set [1] has as its system human breast cancer cell line (MCF-7). The data set is described as follows: MTT cytotoxicity assay, MCF-7. Type of data set: cell-based. To be noted: MCF7, 72 h, read-out: In Vitro Cytotoxicity (IC50, µM) MCF-7. Here is the method: (§1) The cytotoxicity of these compounds against three cancer cell lines was assayed using a conventional microtitre plate tetrazolium cytotoxicity assay. The human hepatoma cancer cell line (SMMC-7721), the colon cancer cell line (HCT-116), and the human breast cancer cell line (MCF-7) were provided by The Chinese Academy of Sciences cell bank. These cells were plated at a density of 1 × 10^5 cells/mL and incubated in a 96-well late for 24 h (37 °C, 5% CO2). The cells were then exposed to various concentrations of the compounds (0.0032, 0.016, 0.08, 0.4, 2, 10, and 50 µM/mL) continuously for 72 h. After this incubation, MTT solution (20 μL, 5 mg/mL) was added to each well and incubated for a further 4 h before removing the media. Formazan crystals were then dissolved by the addition of DMSO (100 μL per well). After mixing, the absorbance was read at 540 nm on a microplate reader. These assays were performed in three independent experiments. Wells containing no drugs, or CPT, were used as negative and positive controls, respectively. The IC50 values, defined as the concentration of compounds that produced a 50% decrease in surviving cells, were calculated using the Logit-method.
Background: Tetrazolium assays rely on reduction of a dye to a coloured formazan, in cell work by metabolically active cells.

For data set [2], the system named is human colon cancer cell line (HCT-116). The data set is described as follows: MTT cytotoxicity assay, HCT-116. Type of data set: cell-based. To be noted: HCT-116, 72 h, read-out: In Vitro Cytotoxicity (IC50, µM) HCT-116. As for the experimental part:
as §1

Data set [3] has as its system human hepatoma cell line (SMMC-7721). The data set is described as follows: MTT cytotoxicity assay, SMMC-7721. Type of data set: cell-based. The conditions noted are these: SMMC-7721, 72 h, read-out: In Vitro Cytotoxicity (IC50, µM) SMMC7721. Here is the method:
as §1

Data set [4] can be described thus: Lactone stability in rat blood serum (HPLC). Type of data set: in vitro ADME. To be noted: rat, serum. As for the experimental part: Compounds E2, F2, G2, and H2 were dissolved in DMSO (100 μL, 4 mM/L) and incubated in rat blood serum (4 mL) at 37 °C. Aliquots were taken at different time points (0, 2, 4, 6, 8, 10, 12, and 24 h) and examined by HPLC, using CPT as the reference.

The test system of the next data set is H22 mouse liver tumours. The data set is described as follows: In vivo anti-tumour activity, H22 mouse liver tumour model. The conditions noted are these: H22 KM mice, i.p. every two days. Here is the method:
Anti-tumour activity screens of CPT-bile acid analogues were conducted in KM mice with H22 mouse liver tumours. Briefly, female mice weighing 18–22 g were subcutaneously inoculated at the right flank with a tumour cell suspension (1 × 10^6 cells) in 0.2 mL of phosphate-buffered saline. The mice were divided into subgroups 24 h after inoculation. These groups (n = 4) were treated with either vehicle (control), CPT, or the CPT-bile acid analogues. Mice received i.p. treatments once every two days. When the tumour weight of the control group reached 1.0–1.5 g, the mice were killed and the TIR (%) calculated.

Data set [5] is described as follows: Body weight and surviving mice in the H22 in vivo study. To be noted: for Mice Number End of Study: 4 mice at start. Also on record: species or system mouse. As for the experimental part:
Anti-tumour activity screens of CPT-bile acid analogues were conducted in KM mice with H22 mouse liver tumours. […] These groups (n = 4) were treated with either vehicle (control), CPT, or the CPT-bile acid analogues. Mice received i.p. treatments once every two days.

These results are taken from paper PMC6271966, “Synthesis and Biological Activity of Some Bile Acid-Based Camptothecin Analogues” (Molecules, 2014).

Molecule `CC[C@@]1(OC(=O)C(CCC(=O)OC)NC(=O)CCC(C)C2CCC3C4CCC5C[C@H](O)CC[C@]5(C)C4C[C@H](O)[C@]23C)C(=O)OCc2c1cc1n(c2=O)Cc2cc3ccccc3nc2-1` (stereo partly drawn) [Compound F2, Camptothecin-20 (S)-O-(D-Glu(OMe))Ester-[N-(3′α,12′α-dihydroxy-24′-carbonyl-5′β-cholane)]] showed a melting point of 199 to 200 °C. For the same molecule, in data set [1], the IC50 came out at 11.8 µM. Besides, the IC50 in data set [2] is 36 µM. For the same molecule, the IC50 in data set [3] was 2.25 µM. The half-life at 97.6 µM in data set [4] is greater than 24 h.
Molecule `CC[C@@]1(OC(=O)C(CCC(=O)OC)NC(=O)CCC(C)C2CCC3C4C(CC[C@]23C)[C@@]2(C)CC[C@@H](O)CC2C[C@H]4O)C(=O)OCc2c1cc1n(c2=O)Cc2cc3ccccc3nc2-1` (stereo partly drawn) [Compound F4, Camptothecin-20 (S)-O-(D-Glu(OMe)) Ester-[N-(3′α 7′α-dihydroxy-24′-carbonyl-5′β-cholane)]] yielded a melting point of 182 to 185 °C. The IC50 in data set [1] was 120 µM. Further, in data set [2], the IC50 was determined as 20 µM. Also, the IC50 in data set [3] was found to be 2.23 µM.
On the same counts, the results for `CC[C@@]1(OC(=O)COC(=O)CCC(C)C2CCC3C4C(C[C@H](O)[C@]23C)[C@@]2(C)CC[C@@H](O)CC2C[C@H]4O)C(=O)OCc2c1cc1n(c2=O)Cc2cc3ccccc3nc2-1` (stereo partly drawn) [Compound G1, Camptothecin-20 (S)-O-acetate-[N-(3′α,7′α,12′α-trihydroxy-24′-carbonyl-5′β-cholane)]] are 230 to 233 °C, 10.9 µM, 4 µM and 0.71 µM.
`CC[C@@]1(OC(=O)COC(=O)CCC(C)C2CCC3C4CCC5C[C@H](O)CC[C@]5(C)C4C[C@H](O)[C@]23C)C(=O)OCc2c1cc1n(c2=O)Cc2cc3ccccc3nc2-1` (stereo partly drawn) [Compound G2, Camptothecin-20 (S)-O-acetate-[N-(3′α,12′α-dihydroxy-24′-carbonyl-5′β-cholane)]] yielded a melting point of 221 to 224 °C. In addition, the IC50 in data set [1] was found to be 4 µM. Besides, the IC50 in data set [2] stood at 2.05 µM. The IC50 in data set [3] was determined as 1.24 µM. Also, in data set [4], the half-life at 97.6 µM is greater than 24 h.
Molecule `CC[C@@]1(OC(=O)COC(=O)CCC(C)C2CCC3C4C(CC[C@]23C)[C@@]2(C)CC[C@@H](O)CC2C[C@@H]4O)C(=O)OCc2c1cc1n(c2=O)Cc2cc3ccccc3nc2-1` (stereo partly drawn) [Compound G3, Camptothecin-20 (S)-O-acetate-[N-(3′α,7′β-dihydroxy-24′-carbonyl-5′β-cholane)]] had a melting point of 229 to 230 °C. In data set [1], the IC50 was found to be 62 µM. Besides, the IC50 in data set [2] came to 12.1 µM. Moreover, the IC50 in data set [3] was 6.84 µM.
Turning to `CC[C@@]1(OC(=O)COC(=O)CCC(C)C2CCC3C4C(CC[C@]23C)[C@@]2(C)CC[C@@H](O)CC2C[C@H]4O)C(=O)OCc2c1cc1n(c2=O)Cc2cc3ccccc3nc2-1` (stereo partly drawn) [Compound G4, Camptothecin-20 (S)-O-acetate-[N-(3′α,7′α-dihydroxy-24′-carbonyl-5′β-cholane)]], the melting point was 228 to 229 °C. The IC50 in data set [1] worked out at 70 µM. Further, in data set [2], the IC50 turned out to be 36 µM. In data set [3], the IC50 stood at 0.14 µM. Also, the “TIR (%)” value with H22 mouse liver tumours (dose 19.21 × 3 µmol/kg) worked out at 35.45%. Besides, the “TIR (%)” value in the data set with H22 mouse liver tumours (dose 38.42 × 3 µmol/kg) was 64.55%. Also, the “TIR (%)” value in the data set on H22 mouse liver tumours (dose 57.63 × 3 µmol/kg) was 71.12%. Moreover, in data set [5] (dose 19.21 × 3 µmol/kg i.p.), the “Mice Number End of Study” value is 4. Further, in data set [5] (dose 19.21 × 3 µmol/kg i.p., start of study 19.1 g), the “Body Weight (g) End of Study” value was determined as 19.4 g. In addition, in data set [5] (dose 38.42 × 3 µmol/kg i.p.), the “Mice Number End of Study” value is on record as 4. Besides, the “Body Weight (g) End of Study” value in data set [5] (dose 38.42 × 3 µmol/kg i.p., start of study 21.0 g) amounted to 21.6 g. The “Mice Number End of Study” value in data set [5] (dose 57.63 × 3 µmol/kg i.p.) was 4. Moreover, the “Body Weight (g) End of Study” value in data set [5] (dose 57.63 × 3 µmol/kg i.p., start of study 19.8 g) came to 22.1 g.

In general, IC50 refers to the concentration at which inhibition is half-maximal. The term half-life denotes the time in which the quantity being followed falls by half. As usually defined, the melting point is the temperature, or range, at which the solid turns liquid.
